Experimental data as given in patent publication US7407745B1, “Method for screening anticancer agent” (Chugai Seiyaku Kabushiki Kaisha, priority 1999, dated 2008).

Assays:
[1] = tested on: consensus Sp1 binding sequence; assay: Luciferase reporter assay of 3xSp1 binding sequence (Sp1-luc, mtSp1-luc) with dominant negative Sp3, MG63 cells; format: cell-based, human
GAL4-Sp3 = assay: Reporter assay using the GAL4 binding sequence (pG5-luc), GAL4-Sp3, MG63 cells; format: cell-based, human; details: GAL4-Sp3 (full-length Sp3, amino acids 1-653), TSA 500 ng/ml, 24 hours
Description: This yielded pM-Sp1, pM-Sp3, pM-DNSp1, and pM-DNSp3, respectively. Each of the Sp1 and Sp3 genes was amplified by PCR. Specifically, pM-Sp1 production employed Sp1-S (5′-acaggtgagcttga-3′/SEQ ID NO: 4) and Sp1-AS (5′-tcagaagccattgcc-3′/SEQ ID NO: 5) as primers and used pPacSp1 as template for amplification (Kadonaga, J. T. et al., (1987) Cell 51:1079-1090). pM-DNSp1 production employed DNSp1-S (5′-[…]-3′/SEQ ID NO: 6) and DNSp1-AS (5′-gaagcatgcacctgc-3′/SEQ ID NO: 7) as primers and used pM-Sp1 as template for amplification (Kadonaga, J. T. et al., (1987) Cell 51: 1079-1090). pM-Sp3 production employed Sp3-18F (5′-[…]-3′/SEQ ID NO: 8) and Sp3-2R (5′-[…]-3′/SEQ ID NO: 9) as primers and used Marathon-Ready cDNA (Human Fetal Liver) (Clontech, Cat. #7403-1) as template for amplification (Chris, K. et al., (1992) J. Biol. Chem. 12: 4251-4261). pM-DNSp3 production employed Sp3-11F (5′-[…]-3′/SEQ ID NO: 10) and Sp3-2R (SEQ ID NO: 9) as primers and used pM-Sp3 as template for amplification (Chris, K. et al., (1992) J. Biol. Chem. 12: 4251-4261). All PCRs were carried out by performing 30 cycles of 94° C. for 1 minute, 55° C. for 30 seconds, and 72° C. for 30 seconds. The resulting PCR amplified product was inserted into a pM vector and the nucleotide sequence was confirmed using a DNA sequencer, ABI PRISM 355 (Applied Bio System). […]

[2] = tested on: GAL4-Sp3 deletion mutant proteins; assay: Reporter assay using the GAL4 binding sequence (pG5-luc), GAL4-Sp3 deletion mutants, MG63 cells; format: cell-based, human; details: TSA 500 ng/ml, 24 hours
Description: This yielded pM-Sp1, pM-Sp3, pM-DNSp1, and pM-DNSp3, respectively. Each of the Sp1 and Sp3 genes was amplified by PCR. Specifically, pM-Sp1 production employed Sp1-S (5′-acaggtgagcttga-3′/SEQ ID NO: 4) and Sp1-AS (5′-tcagaagccattgcc-3′/SEQ ID NO: 5) as primers and used pPacSp1 as template for amplification (Kadonaga, J. T. et al., (1987) Cell 51:1079-1090). pM-DNSp1 production employed DNSp1-S (5′-[…]-3′/SEQ ID NO: 6) and DNSp1-AS (5′-gaagcatgcacctgc-3′/SEQ ID NO: 7) as primers and used pM-Sp1 as template for amplification (Kadonaga, J. T. et al., (1987) Cell 51: 1079-1090). pM-Sp3 production employed Sp3-18F (5′-[…]-3′/SEQ ID NO: 8) and Sp3-2R (5′-[…]-3′/SEQ ID NO: 9) as primers and used Marathon-Ready cDNA (Human Fetal Liver) (Clontech, Cat. #7403-1) as template for amplification (Chris, K. et al., (1992) J. Biol. Chem. 12: 4251-4261). pM-DNSp3 production employed Sp3-11F (5′-[…]-3′/SEQ ID NO: 10) and Sp3-2R (SEQ ID NO: 9) as primers and used pM-Sp3 as template for amplification (Chris, K. et al., (1992) J. Biol. Chem. 12: 4251-4261). All PCRs were carried out by performing 30 cycles of 94° C. for 1 minute, 55° C. for 30 seconds, and 72° C. for 30 seconds. The resulting PCR amplified product was inserted into a pM vector and the nucleotide sequence was confirmed using a DNA sequencer, ABI PRISM 355 (Applied Bio System). As a control for the transfection test, pM that only expresses the GAL4 DNA binding domain was employed. The reporter plasmid (pG5-luc) used to indicate the dependence of transcriptional activation, on GAL4 was pGL3-Basic Vector (Promega), which carried the 5×GAL4 binding sequence, E1B minimum promoter, and TATA sequence, upstream of the luciferase gene.
The expression vector described above encoding various Sp1 or Sp3 GAL4 fusion proteins and the abovementioned vector carrying a luciferase reporter gene downstream of the consensus 5×GAL4 binding sequence were cotransfected into MG63 cells using SuperFect following the method by QIAGEN. Namely, cells were seeded at a density of 0.8×10^5 cells/well in a 12-well plate. After 24 hours, a pre-mixed reaction solution containing 0.5 μg of reporter plasmid, 2.5 μg of expression vector, and SuperFect were added to the MG63 cells and the mixture was reacted for 2 hours. Subsequently, the cells were cultured for 24 hours under normal culture conditions, cultured for another 24 hours with or without (control) 500 ng/ml of TSA, and then, the cells were lysed. Using luciferase substrate (Promega), luciferase activity of the cell lysates was measured using LB-96P (Berthold). The measured values were normalized and were expressed as activity per amount of protein. Transcriptional induction due to TSA treatment was calculated as a ratio with respect to the TSA-untreated control value (activation amplification by TSA).
Next, reporter assay was performed using various Sp3 deletion mutants fused to the GAL4 DNA binding domain in order to identify the TSA responsive region of Sp3. First, pM-Sp3 (1-398), pM-Sp3 (81-398), pM-Sp3 (161-398), pM-Sp3 (241-398), pM-Sp3 (1-80), pM-Sp3 (1-160), pM-Sp3 (1-240), and pM-Sp3 (1-320) were prepared. They respectively carry regions corresponding to the indicated amino acid numbers. […]
As a control for the transfection test, pM expressing only the GAL4 DNA binding domain was used. […] Transfection using these genes followed the same method as described above, and the occurrence of transcriptional induction due to TSA treatment in these mutants was monitored.

p21/WAF1/Cip1 promoter = assay: Luciferase reporter assay of p21/WAF1/Cip1 promoter (pWWP, pWPdel-BstXI) with dominant negative Sp3, MG63 cells; format: cell-based, human; details: pWWP and pWPdel-BstXI reporters, forced expression of DNSp3 (pCMV-DNSp3), TSA 500 ng/ml
[3] = tested on: Sp1 binding sequence in the p21/WAF1/Cip1 promoter; assay: Gel shift assay (EMSA) with nuclear extracts of TSA-treated and untreated MG63 cells; design: species or system human; details: 500 ng/ml TSA for 24 hours vs untreated
Experimental: First, MG63 cells were incubated at 37° C. in a humidified atmosphere of 5% CO2 using DMEM medium (GIBCO BRL) containing 10% fetal calf serum (GIBCO BRL). Nuclear extracts of these cells were prepared from both TSA-treated and untreated cells, according to the method of Dignam et al. (Dignam, J. D. et al., (1983) Nucleic Acids Res. 11:1475-1489). First, cells cultured in a dish (100 mm) were incubated for 24 hours with 500 ng/ml TSA (Wako). This was then washed twice with cold PBS containing 0.5 mM 4-(2-aminoethyl)benzenesulfonyl fluoride HCl (p-ABSF) (Wako), the cells were scraped from the plate, and suspended in 10 mM Hepes/KOH buffer (pH7.9) containing 10 mM KCl, 1.5 mM MgCl2, 0.5 mM DTT, 5 mM NaF, 5 mM NaVO4, and 0.5 mM p-ABSF. After placing on ice for 10 minutes, the cells were disrupted using a Dounce homogenizer. […]
Next, based on the TSA-dependent promoter sequence (5′-CGGGTCCCGCCTCCTT-3′/SEQ ID NO: 1) located −87 to −72 bp from the transcription start site of the p21/WAF1/Cip1 gene, oligonucleotides (5′-[…]-3′/SEQ ID NO: 2, and 5′-[…]-3′/SEQ ID NO: 3) were synthesized. […] The reaction solution was resolved by electrophoresis on a 6% acrylamide gel and the proteins that bind to the p21/WAF1/Cip1 probe were detected using BAS 2000 (Fujix).

[4] = tested on: all-trans-retinoic acid resistant acute promyelocytic leukemia; details: in combination with all-trans retinoic acid; cited from earlier work

Row | Molecule | TSA dependent transcriptional induction driven by the consensus Sp1 binding sequence ([1]; Sp1-luc reporter, forced expression of DNSp3, TSA 500 ng/ml) | transcriptional induction by TSA ([1]; mtSp1-luc reporter (mutated Sp1 binding sequence), TSA 500 ng/ml) | transcriptional induction of the luciferase gene by TSA (ratio to TSA-untreated control) (GAL4-Sp3) | TSA dependent transcriptional induction ([2]; GAL4-DNSp3 (amino acids 399-653)) | TSA dependent transcriptional induction ([2]; GAL4-Sp3 (1-80)) | TSA dependent transcriptional induction ([2]; GAL4-Sp3 (1-398)) | TSA dependent transcriptional induction ([2]; GAL4-Sp3 (81-160) alone) | TSA dependent transcriptional induction ([2]; GAL4-Sp3 (241-398)) | transcriptional induction of p21/WAF1/Cip1 by TSA (p21/WAF1/Cip1 promoter) | amount of DNA bound by Sp1 and Sp3 [3] | remission of leukemia [4]
1 | CC(/C=C/C(=O)NO)=C\[C@@H](C)C(=O)c1ccc(N(C)C)cc1 [TSA, Trichostatin A] | marked repression | did not take place | strong transcriptional induction | no longer showed TSA dependent transcriptional induction | induction due to TSA treatment disappeared | stronger than with GAL4-Sp3 | almost no activity | induction due to TSA treatment disappeared | remarkably repressed by DNSp3 | a difference in the amount of DNA bound by Sp1 and Sp3 due to the presence or absence of TSA treatment could not be observed | –
2 | sodium phenylbutyrate | – | – | – | – | – | – | – | – | – | – | complete remission
